Where two headings read alike, the source gives them in different places.
Tests used:
[1] = tested on: rat pituitary cells; experiment: growth hormone releasing activity from rat pituitary cells in vitro (GH measured by RIA); assay type: cell-based; settings: read-out: EC50 (GH releasing efficacy)
Protocol: Compounds of the present invention were evaluated for their growth hormone releasing activity from rat pituitary cells in vitro in accordance with the method described in the literature (R. G. Smith et al., Science, 260, 1640 (1993)). Pituitary glands removed from 7-week-old Wistar/ST male rats were washed with HBSS (Hank's balanced salt solution) three times and minced into small pieces (ca. 1 mm^2) using a pair of scissors. […] An enzyme solution (0.1 mL per a pituitary gland) was added and the cell dispersion was carried out in a water bath at 37° C. for ca 20-30 min, during which time the digested mixture was mixed by successive up-take and down-take of the suspension using a pipette, every 5 minutes. The resulting cell suspension was centrifuged at 1200 rpm for 2-3 min at room temperature and the supernatant fluid was discarded. A cultured medium was added and the resulting cell suspension was again centrifuged at 1200 rpm for 2-3 min at room temperature and the supernatant fluid was discarded. This procedure was repeated another 2 times. […] The culture medium was discarded and an assay medium (0.1 mL) was added. The incubation was continued for 1.5 h and the cells were washed with the assay medium. […] The supernatant fluid was recovered and the GH content present was measured by RIA (radioimmunoassay). An aliquot of the solution was diluted to 0.05 mL with a RIA buffer which consisted of PBS (pH 7.3) containing 1% BSA, 0.1% NaN3 and 25 mM EDTA. […] Cell membrane fractions containing protein A were added and the mixture was allowed to stand for 20 min and centrifuged. The supernatant fluid was removed and the precipitates were washed with the RIA buffer. The ^125I content in the precipitates was measured. The GH concentration in the sample was calculated from the standard curve made by using the standard GH sample. The EC50 values of the test compounds were determined using recurrent calculation from the following equation, where X is the concentration of the test compound, Y is the GH concentration at the given assay, and B is the EC50 value. C means recurrently calculated GH concentration in the absence of the test compound and A+C means recurrently calculated GH concentration when a maximum amount of the test compound is present. […] The culture medium used here consisted of DMEM (Dulbecco's Modified Eagle's Medium) containing 10% horse serum, 2.5% fetal bovine serum, 1% nonessential amino acids, 0.01% streptomycin and penicillin (100 IU/mL). The cultured medium described above was adjusted to pH 7.3 by adding a 25 mM HEPES buffer and the resulting solution was used as the assay medium. […] The resulting mixture was used as the test compound solution. […]

[2] = increase in the weight of rats after oral administration for 9 days; assay type: in vivo, rat; settings: 10 mg/kg/day×2 orally for 9 days, 11-week-old F 344/N rats (6/group); p<0.01; distilled water group 13.5±2.3 g
Protocol: The compound of Example 74 (10 mg/kg/day×2) were administered orally to 11-week-old F 344/N rats (6/group) for 9 days and increase in the weight of each rat was measured.

| Structure (SMILES) | EC50 ([1]; Rattus norvegicus, 0.25 h) | EC50 ([1]; cultured pituitary cells of 7-week-old Wistar/ST male rats, 15 min at 37° C., GH by RIA) | increase in the weight [2] |
| --- | --- | --- | --- |
| CCN(CC)CCN1C(=O)C(O)(c2ccccc2F)c2c(Br)cccc21 (centres unmarked) [Example 21, 4-Bromo-1-(2-diethylaminoethyl)-3-hydroxy-3-(2-fluorophenyl)oxindole] | 4 nM |  |  |
| CCN(CC)CCN1C(=O)C(O)(c2ccc(Cl)cc2Cl)c2c1cc(C(N)=O)cc2C(F)(F)F (centres unmarked) [Example 91, 1-(2-Diethylaminoethyl)-4-trifuoromethyl-6-carbamoyl-3-hydroxy-3-(2,4-dichlorophenyl)oxindole] |  | 1.2 nM |  |
| CCN(CC)CCN1C(=O)C(O)(c2ccccc2Cl)c2c1cc(C(N)=O)cc2C(F)(F)F (single isomer, unassigned; (+)) [Example 74, (+)-1-(2-Diethylaminoethyl)-4-trifluoromethyl-6-carbamoyl-3-hydroxy-3-(2-chlorophenyl)oxindole] | 0.5 nM |  | 19.5 ± 2.1 g |
| CCN(CC)CCN1C(=O)C(O)(c2ccccc2Cl)c2c1cc(C#CCCC(=O)N1CCOCC1)cc2C(F)(F)F (centres unmarked) [Example 70, 1-(2-Diethylaminoethyl)-4-trifluoromethyl-6-(4-morpholinocarbonyl-1-butynyl)-3-hydroxy-3-(2-chlorophenyl)oxindole] | 5 nM |  |  |

Reference: patent US6576656B1, “Oxindole derivative” (Sumitomo Pharmaceuticals Co., Ltd., priority 1998, dated 2003)
